Measurements taken from patent US11420947B2, “(S)-n-hydroxy-2-(2-(4-methoxyphenyl)butanamido)thiazole-5-carboxamide and pharmaceutically acceptable salts thereof” (TRANSLATIONAL DRUG DEVELOPMENT, LLC, priority 2018, dated 2022).
pIC50: −log10 of the molar value.

Key:
A2780cp = assay: CellTiter-Glo cell viability assay; type: cell-based, Human; settings: A2780C/P; A2780cp, OVARIAN, Platinum res-Human Ovarian, 72 hours
Method: (§1) Cell viability in the presence of varying concentrations of the above listed compounds at different time points was used to assess cytotoxicity and the effect of the compounds on cell proliferation.
(§2) Cell viability was measured by the CellTiter-Glo® cell viability assay from Promega (Madison, Wis.). The CellTiter-Glo® Luminescent Cell Viability Assay is a homogeneous method to determine the number of viable cells in culture based on quantitation of the ATP present, which signals the presence of metabolically active cells. Following treatment, CellTiter-Glo® is added to treatment wells and incubated at 37° C. luminescence values were measured at using a Molecular Devices Spectramax microplate reader
(§3) Cells were grown to 70% confluency, trypsinized, counted, and seeded in 96 well flat-bottom plates at a final concentration of 2.5×10^3-5×10^3 cells/well (Day 0). Cells were allowed to incubate in growth media for 24 hours. Treatment with the test agents or standard agents began on Day 1 and continued for 72 hours. At the 72-hour timepoint, treatment containing media was removed. Viable cell numbers are quantified by the CellTiter-Glo® cell viability assay as described above. Results from these studies were used to calculate an IC50 value (concentration of drug that inhibits cell growth by 50 percent of control) for each compound.
(§4) For single agent and combination studies, data from each experiment was collected and expressed as % Cell Growth using the following calculation: % Cell Growth=(ftest/fvehicle)×100
(§5) Where test is the fluorescence of the tested sample, and fvehicle is the fluorescence of the vehicle in which the drug is dissolved. Dose response graphs and IC50 values were generated using Prism 6 software (GraphPad) using the following equation: Y=(Top-Bottom)/(1+10^((logIC^50^-X)-HillSlope))

A2780 = assay: CellTiter-Glo cell viability assay; type: cell-based, Human; settings: A2780, OVARIAN, Human Ovarian, 72 hours
Method: as §1, §2, §3, §4, §5

BIN-67 = assay: CellTiter-Glo cell viability assay; type: cell-based, Human; settings: BIN-67, OVARIAN, Human Small Cell Carcinoma of the Ovary, 72 hours
Method: as §1, §2, §3, §4, §5

COV434 = assay: CellTiter-Glo cell viability assay; type: cell-based, Human; settings: COV434, OVARIAN, Human Ovarian Granulosa, 72 hours
Method: as §1, §2, §3, §4, §5

IGROV-1 = assay: CellTiter-Glo cell viability assay; type: cell-based, Human; settings: IGROV-1, OVARIAN, Human Ovarian Adenocarcinoma, 72 hours
Method: as §1, §2, §3, §4, §5

OVCAR-3 = assay: CellTiter-Glo cell viability assay; type: cell-based, Human; settings: OVCAR-3, OVARIAN, Human Ovarian Carcinoma, 72 hours
Method: as §1, §2, §3, §4, §5

OVCAR-8 = assay: CellTiter-Glo cell viability assay; type: cell-based, Human; settings: OVCAR-8, OVARIAN, Human Ovarian Carcinoma, 72 hours
Method: as §1, §2, §3, §4, §5

SCCOHT-1 = assay: CellTiter-Glo cell viability assay; type: cell-based, Human; settings: SCCOHT-1, OVARIAN, Human Small Cell Carcinoma of the Ovary, 72 hours
Method: as §1, §2, §3, §4, §5

SKOV-3 = assay: CellTiter-Glo cell viability assay; type: cell-based, Human; settings: SK-OV-3; SKOV-3, OVARIAN, Human Ovarian Carcinoma, 72 hours
Method: as §1, §2, §3, §4, §5

ASPC-1 = assay: CellTiter-Glo cell viability assay; type: cell-based; settings: Homo sapiens, ASPC1; ASPC-1, PANCREAS, Pancreatic, 72 hours
Outline: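 Luminescent ATP quantitation served as the viability measure after a 72-hour treatment begun one day post-seeding. Growth was normalised to vehicle to derive IC50.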

4T1 = assay: CellTiter-Glo cell viability assay; type: cell-based, Murine; settings: Mus musculus; 4T1, BREAST, Murine Breast Tumor, 72 hours
Method: as §1, §2, §3, §4, §5

CT26 = assay: CellTiter-Glo cell viability assay; type: cell-based, Murine; settings: Mus musculus; CT26, MURINE COLON, Colon, 72 hours
Method: as §1, §2, §3, §4, §5

GL261 = assay: CellTiter-Glo cell viability assay; type: cell-based, Murine; settings: Mus musculus; GL261, MURINE BRAIN, Murine Glioma, 72 hours
Method: as §1, §2, §3, §4, §5

L1210 = assay: CellTiter-Glo cell viability assay; type: cell-based, Murine; settings: Mus musculus; L1210, HEMATOPIETIC, Murine Leukemia, 72 hours
Method: as §1, §2, §3, §4, §5

MC38 = assay: CellTiter-Glo cell viability assay; type: cell-based, Murine; settings: Mus musculus, MC-38; MC38, MURINE COLON, Colon, 72 hours
Method: as §1, §2, §3, §4, §5

[1] = Pharmacokinetics studies in mice; type: in vivo; settings: PO-5 mg/kg
Description: Volume of distribution is one of the most important pharmacokinetic properties of a drug candidate and for an anticancer drug can result in increased drug distribution to the tumor.

CCC(C(=O)Nc1ncc(C(=O)NO)s1)c1ccc(OC)cc1 (racemic) [#1, N-hydroxy-2-(2-(4-methoxyphenyl)butanamido)thiazole-5-carboxamide]
pIC50 (A2780cp): 6.93 | pIC50 (A2780): 7.32 | pIC50 (BIN-67): 7.17 | pIC50 (COV434): 7.33 | pIC50 (IGROV-1): 7.11 | pIC50 (OVCAR-3): 7.19 | pIC50 (OVCAR-8): 7.44 | pIC50 (SCCOHT-1): 6.47 | pIC50 (SKOV-3): 6.95 | pIC50 (ASPC-1): 6.80 | pIC50 (4T1): 7.44 | pIC50 (CT26): 5.88 | pIC50 (GL261): 6.43 | pIC50 (L1210): 7.23 | pIC50 (MC38): 6.89 | AUC % Extrap [1]: 5.51% | CI/Fobs [1]: 483.2 mL/min/kg | AUC(0-inf) ([1]; mouse, in vivo): 172 ng·h/mL | AUC(0-t) ([1]; mouse, in vivo): 163 ng·h/mL | Cmax ([1]; mouse, in vivo): 30.8 ng/mL | Tmax ([1]; mouse, in vivo): 0.5 h | bioavailability ([1]; mouse, in vivo): 14.3% | half-life ([1]; mouse, in vivo): 5.44 h | Vd/F ([1]; mouse, in vivo, read-out: Vz/Fobs): 228 L/kg
